Experiment [1] deals with Enterobacter aerogenes. The experiment is described as follows: RSS-12 h residual self-sanitizing test (modified EPA Protocol #01-1A, 3 wear cycles). In kind it is cell-based. The following applies: 150 microliters. As for the experimental part: In order to substantiate 24 hour long-term sanitization claims with the United States Environmental Protection Agency (EPA), compositions are evaluated with the residual self-sanitization (RSS) method, EPA Protocol #01-1A (https://www.epa.gov/sites/production/files/2015-09/documents/cloroxpcol_final.pdf). For validating longer term disinfection, all extant test protocols emulate the maximum amount of recontamination and abrasion by touching and wiping anticipated before reapplication, typically a 24 hour period. An intermediate protocol with approximately half the level abrasion and re-soiling challenge to a surface is presented here as the “RSS-12 h” test protocol.
Long lasting disinfection claims are substantiated by the RSS test, which challenges the applied composition by subjecting it to recontamination (re-inoculation with microorganisms) and abrasion (wear cycles). An intermediate test protocol, with approximately half the number of re-inoculations and wear cycles (“RSS-12 h”) is used to predict disinfection that is durable up to 12 hours before reapplication of the test product. As outlined in FIG. 1, this procedure requires preparation of the test bacterial (microbial) culture over the first week (see EPA Protocol #01-1A) followed by testing in week 2.
The testing involves inoculating the surface with bacteria, followed by application of the product on the substrate and allowing it to dry. The substrate may be glass, polycarbonate, or steel. This substrate is then subjected to an abrasion—re-inoculation regime of 3 “wear cycles”. The abrasion is conducted with a 1084 gwt. rectangular steel block covered with a cloth with an underlying thin polyurethane-foam layer. Each wear cycle is composed of a “dry” abrasion and a “wet” abrasion, the latter with the cloth cover having been wet with a mist of water using a Preval® sprayer. Each abrasion (dry/wet) is characterized by a back and forth motion of the block across the test substrate. Each abrasion cycle is followed by re-inoculation the surface with a bacterial culture. The RSS-12 h involves a 3-abrasion cycle/3-inoculations test as compared to the full RSS test that outlines a 6-abrasion cycle/6-inoculation test regimen. All other details of the test method are as outlined in the EPA Protocol #01-1A.
The test substrate is allowed to dry overnight and then finally inoculated again (sanitizer test) for 5 minutes, followed by neutralization of the entire substrate. Surviving bacteria is then harvested off the surface and cultured with serial dilutions on agar plates, allowing colony formation over 24-48 hours. Surviving bacteria are then counted as the number of colonies. […] The bacteria in this test may be substituted for other microorganisms such as fungi or viruses. In an embodiment, microorganisms are selected from gram-positive bacteria (e.g Staphylococcus aureus), gram-negative bacteria (e.g. Enterobacter aerogenes), fungi, enveloped viruses, non-enveloped viruses, and combinations thereof.
Films prepared from Formula C were evaluated using RSS-12 h protocol as described above, a modified version the residual self-sanitization (RSS) method, EPA Protocol #01-1A. Protocol #01-1A is a method approved by the EPA for measuring long-term sanitization claims (i.e., “kill later” durability claim). Protocol #01-1A, the entire contents of which are incorporated by reference, measures the residual self-sanitizing activity of dried chemical residues (films) on inanimate, hard, non-porous surfaces against bacteria: Staphylococcus aureus, Klebsiella pneumoniae, and/or Enterobacter aerogenes. In particular, surfaces are inoculated, treated with test product, allowed to dry, then abraded under alternating wet and dry conditions, which are interspersed with several re-inoculations. (FIG. 1).
The test shown in Table 3 was conducted on a steel substrate (1 inch×1 inch) with Enterobacter aerogenes, a gram negative bacteria which is typically more resistant. […]

In experiment [2] the test system is Enterobacter aerogenes. The experiment is described as follows: RSS-24, EPA Protocol #01-1A residual self-sanitizing activity test (6 abrasion cycles). It counts as cell-based. The settings on record: Table 5, 150 microliters, stainless steel. As for the experimental part:
In order to substantiate 24 hour long-term sanitization claims with the United States Environmental Protection Agency (EPA), compositions are evaluated with the residual self-sanitization (RSS) method, EPA Protocol #01-1A (https://www.epa.gov/sites/production/files/2015-09/documents/cloroxpcol_final.pdf). For validating longer term disinfection, all extant test protocols emulate the maximum amount of recontamination and abrasion by touching and wiping anticipated before reapplication, typically a 24 hour period. An intermediate protocol with approximately half the level abrasion and re-soiling challenge to a surface is presented here as the “RSS-12 h” test protocol. […]
The test substrate is allowed to dry overnight and then finally inoculated again (sanitizer test) for 5 minutes, followed by neutralization of the entire substrate. […] Surviving bacteria are then counted as the number of colonies. […]
Formula C was then further evaluated by (EPA) Protocol #01-1A residual self-sanitizing activity test with 6 alternating abrasion cycles (wet and dry each) for a 24 hour claim. […] When evaluated with 150 microliters of Formula C on a (1×1) steel substrate with Enterobacter aerogenes, >3 LR were achieved as required by the test (Table 5), indicating a pass for RSS-24.

Where [3] appears, read: Table 4, reduced quat content, stainless steel.

For the substance Triton X-100, the Log with Enterobacter aerogenes [1] (Table 3, log of surviving cfu, stainless steel) was 6.48; in the experiment on Enterobacter aerogenes [1] (setting [3]), 6.11; in the experiment with Enterobacter aerogenes [2] it was 7.27. The Avg. cfu/carrier with Enterobacter aerogenes [1] (Table 3, stainless steel) stood at 3.00E+06 cfu/carrier; in the experiment with Enterobacter aerogenes [1] (setting [3]), 1.29E+06 cfu/carrier; in the experiment with Enterobacter aerogenes [2], 1.85E+07 cfu/carrier. Moreover, in the experiment on Enterobacter aerogenes [1] (Table 3, stainless steel), the geom. mean is given as 6.48. In addition, the avg. cfu/surface with Enterobacter aerogenes [1] (stainless steel 1 inch x 1 inch, surviving population after final inoculation, triplicate) was found to be 3.00E+06 cfu/surface.
